Results published in US20230355625A1, “METHODS OF TREATMENT” (INTRA-CELLULAR THERAPIES, INC., priority 2019, published 2023).

How the values were obtained:
[1] = test system: healthy human individuals; experiment: BOLD-fMRI during a stop signal task; assay type: in vivo
Experimental: The Stop Signal task is a way to measure behavioral and neural responses to inhibitory processing.
Patients were again administered single oral doses of placebo, Compound 1 at 1 mg or 10 mg. Brain activity was then measured during BOLD-fMRI scanning at 3 Tesla. In this study, participants are presented with a visual and/or audio cue and two buttons. The subjects are instructed to press the left button as quickly as possible when an ‘X’ appears on a screen and the right button when an ‘O’ appears. Participants also are instructed not to press either button when they hear a tone, which constitute the Stop trials. There are two different kinds of Stop trials presented during the task, namely easy and hard trials. Easy trials consist of the tone cue being presented simulataneously with the visual ‘X’ or ‘O’ making it easier to suppress a response. Hard trials consist of the tone being presented after a brief delay, making it harder to process the tone and suppress a response.
This consistency provides confidence in the findings.

[2] = test system: healthy human individuals; experiment: BOLD-fMRI during the extinction phase of a fear conditioning task; assay type: in vivo; details: single oral doses of 1 mg or 10 mg vs placebo; FIG. 1
Experimental: A randomized, double-blind, placebo-controlled, within-subjects study was carried out with healthy human individuals to determine whether the PDE1 inhibitors according to the present disclosure induce changes in blood oxygen level dependent functional magnetic resonance imaging (BOLD-fMRI) signals in the dorsal anterior insula (dAI) during the extinction phase of a fear conditioning task. To test these effects, Compound 1 was administered to healthy human patients. Compound 1 (ITI-214) is shown below:
The insula is a small brain region that is essential for the mind-body connection, where body sensations are translated into emotion. Anterior insula reactivity has been associated with anticipating significant events, and increased anterior insula activity has been associated with anxiety. Conditioning, including fear conditioning and extinction, is a brain activity during learning. […]
Patients were administered single oral doses of placebo, or doses of Compound 1 at 1 mg or 10 mg. Brain activity was then measured during BOLD-fMRI scanning at 3 Tesla. […] Region-of-interest (ROI) analyses for the dAI, IFG, and other prespecified regions were computed using linear mixed models in R. The brain's response is measured in each subject by fMRI scans, which is summarized in FIG. 1.

preclinical models = preclinical models of cognitive performance; assay type: in vivo
[3] = in vivo; cited from earlier work
animal models = details: cited from earlier work
healthy humans = details: cited from earlier work; for fear extinction learning: humans

## CN1C(=O)c2c(nn(Cc3ccc(-c4cccc(F)n4)cc3)c2Nc2ccccc2)N2C1=N[C@@H]1CCC[C@@H]12 [Compound 1]
[1]; FIG. 3
  activity in the dorsolateral prefrontal cortex during stop signal task: increased activity
[1]; FIG. 4
  activity in the dorsal anterior cingulate cortex during stop signal task: increased activity
[1]; FIG. 5
  activity in the anterior insula during stop signal task: increased activity
[1]; human, 1 mg where stated
  activation in the frontal gyrus: increased activation
[1]; single oral dose 1 mg, FIG. 2
  activation in the inferior frontal gyrus during correctly inhibited Stop trials, easy trials (correcteasy): significantly increased activation
  activation in the inferior frontal gyrus during correctly inhibited Stop trials, hard trials (correcthard): significantly increased activation
[2]
  insula activity (dorsal anterior insula BOLD-fMRI signal) during fear extinction: slightly attenuated
Preclinical models
  cognitive performance: improved cognitive performance
  psychomotor hyperactivity: without psychomotor hyperactivity

## COC(=O)C(c1ccccc1)C1CCCCN1 (stereo not drawn) [methylphenidate]
[3]
  activation in the frontal gyrus during a stop signal task: increase activation
  inhibitory performance during a stop signal task: improve inhibitory performance
Animal models
  extinction of contextual fear (cognitive function): enhanced extinction of contextual fear
Healthy humans; healthy humans
  effect on the bilateral anterior insula during a fear extinction task: attenuating effect
Healthy humans
  fear extinction learning: enhancement of fear extinction learning

## NC(=O)C[S+]([O-])C(c1ccccc1)c1ccccc1 (stereo not drawn) [modafinil]
[3]
  activation in the frontal gyrus during a stop signal task: increase activation
  inhibitory performance during a stop signal task: improve inhibitory performance
Animal models
  extinction of contextual fear (cognitive function): enhanced extinction of contextual fear
Healthy humans
  fear extinction learning: enhancement of fear extinction learning
